In patent publication US20240270750A1, “IMIDAZOLE-CONTAINING INHIBITORS OF ALK2 KINASE” (BioCryst Pharmaceuticals, Inc., priority 2021, published 2024):
Structures can show the parent of a compound that is named as a salt.

What follows are molecules tested against T1, ALK2 (Homo sapiens, UniProt Q04771) (assay: LanthaScreen Eu Kinase Binding Assay, ALK2 inhibition). Details: 1 micromolar concentration.
T1 construct: purchased ThermoFisher Scientific (Life Technologies)
T1 sequence (Q04771 21-509): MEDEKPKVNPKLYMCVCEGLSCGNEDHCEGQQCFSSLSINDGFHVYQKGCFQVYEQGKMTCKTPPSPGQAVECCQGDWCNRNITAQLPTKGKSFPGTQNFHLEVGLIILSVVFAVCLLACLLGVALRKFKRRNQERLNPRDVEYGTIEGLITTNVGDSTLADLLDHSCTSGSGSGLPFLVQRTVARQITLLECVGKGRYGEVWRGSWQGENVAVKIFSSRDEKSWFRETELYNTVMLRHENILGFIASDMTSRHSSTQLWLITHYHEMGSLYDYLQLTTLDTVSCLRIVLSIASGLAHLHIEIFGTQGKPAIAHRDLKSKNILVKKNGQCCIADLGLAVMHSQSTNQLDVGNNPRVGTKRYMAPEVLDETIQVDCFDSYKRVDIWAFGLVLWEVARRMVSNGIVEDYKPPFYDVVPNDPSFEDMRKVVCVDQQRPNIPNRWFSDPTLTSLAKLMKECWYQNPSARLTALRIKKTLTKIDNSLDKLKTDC
Description: Biochemical assays to measure the inhibitory effects of the compounds were performed by ThermoFisher Scientific (Life Technologies). ALK2 inhibition was tested using LanthaScreen™ Eu Kinase Binding Assay screening protocol.

| inhibition at 1 µM [%] | Compound |
| --- | --- |
| > 50 | CCC(C)c1nc(Nc2cn(-c3cc(OC)c(OC)c(OC)c3)cn2)c2cnn(C(C)C)c2n1 (centres unmarked) [Compound 33d, 6-(sec-butyl)-1-isopropyl-N-(1-(3,4,5-trimethoxyphenyl)-1H-imidazol-4-yl)-1H-pyrazolo[3,4-d]pyrimidin-4-amine] |
| > 50 | COc1cc(-n2cnc(Nc3nc(CC4CC4)nc4c3cnn4C(C)C)c2)cc(OC)c1OC [Compound 34d, 6-(cyclopropylmethyl)-1-isopropyl-N-(1-(3,4,5-trimethoxyphenyl)-1H-imidazol-4-yl)-1H-pyrazolo[3,4-d]pyrimidin-4-amine] |
| > 50 | COc1cc(-n2cnc(Nc3nc(C4CCC4)nc4c3cnn4C(C)C)c2)cc(OC)c1OC [Compound 35d, 6-cyclobutyl-1-isopropyl-N-(1-(3,4,5-trimethoxyphenyl)-1H-imidazol-4-yl)-1H-pyrazolo[3,4-d]pyrimidin-4-amine] |
| > 50 | COc1cc(-n2cnc(Nc3nc(CO)nc4c3cnn4C(C)C)c2)cc(OC)c1OC [Compound 36e, (1-isopropyl-4-((1-(3,4,5-trimethoxyphenyl)-1H-imidazol-4-yl)amino)-1H-pyrazolo[3,4-d]pyrimidin-6-yl)methanol] |
| > 50 | COc1cc(-n2cnc(Nc3nc(C4=CCN(C)CC4)nc4c3cnn4C(C)C)c2)cc(OC)c1OC [Compound 38b, 1-isopropyl-6-(1-methyl-1,2,3,6-tetrahydropyridin-4-yl)-N-(1-(3,4,5-trimethoxyphenyl)-1H-imidazol-4-yl)-1H-pyrazolo[3,4-d]pyrimidin-4-amine] |
| > 50 | COc1cc(-n2cnc(Nc3nc(C(C)C)nc4c3cnn4-c3ccccc3)c2)cc(OC)c1OC [Compound 39d, 6-isopropyl-1-phenyl-N-(1-(3,4,5-trimethoxyphenyl)-1H-imidazol-4-yl)-1H-pyrazolo[3,4-d]pyrimidin-4-amine] |
| > 50 | COc1cc(-n2cnc(Nc3nc(C4=CN(C(=O)OC(C)(C)C)CC4)nc4c3cnn4C(C)C)c2)cc(OC)c1OC [Compound 40b, tert-butyl 4-(1-isopropyl-4-((1-(3,4,5-trimethoxyphenyl)-1H-imidazol-4-yl)amino)-1H-pyrazolo[3,4-d]pyrimidin-6-yl)-2,3-dihydro-1H-pyrrole-1-carboxylate] |
| > 50 | COc1cc(-n2cnc(Nc3nc(C4CCN(C(=O)OC(C)(C)C)C4)nc4c3cnn4C(C)C)c2)cc(OC)c1OC (centres unmarked) [Compound 41a, tert-butyl 3-(1-isopropyl-4-((1-(3,4,5-trimethoxyphenyl)-1H-imidazol-4-yl)amino)-1H-pyrazolo[3,4-d]pyrimidin-6-yl)pyrrolidine-1-carboxylate] |
| > 50 | COc1cc(-n2cnc(Nc3nc(C(C)C)nc4c3cnn4-c3ccc(F)cc3F)c2)cc(OC)c1OC [Compound 42d, 1-(2,4-difluorophenyl)-6-isopropyl-N-(1-(3,4,5-trimethoxyphenyl)-1H-imidazol-4-yl)-1H-pyrazolo[3,4-d]pyrimidin-4-amine] |
| > 50 | COc1cc(-n2cnc(Nc3nc(C(C)C)nc4c3cnn4-c3c(F)cccc3F)c2)cc(OC)c1OC [Compound 43d, 1-(2,6-difluorophenyl)-6-isopropyl-N-(1-(3,4,5-trimethoxyphenyl)-1H-imidazol-4-yl)-1H-pyrazolo[3,4-d]pyrimidin-4-amine] |
| > 50 | COc1cc(-n2cnc(Nc3nc(C4CCCC4)nc4c3cnn4C(C)C)c2)cc(OC)c1OC [Compound 44e, 6-cyclopentyl-1-isopropyl-N-(1-(3,4,5-trimethoxyphenyl)-1H-imidazol-4-yl)-1H-pyrazolo[3,4-d]pyrimidin-4-amine] |
| > 50 | COc1cc(-n2cnc(Nc3nc(C4CCOC4)nc4c3cnn4C(C)C)c2)cc(OC)c1OC (centres unmarked) [Compound 45e, 1-isopropyl-6-(tetrahydrofuran-3-yl)-N-(1-(3,4,5-trimethoxyphenyl)-1H-imidazol-4-yl)-1H-pyrazolo[3,4-d]pyrimidin-4-amine] |
| > 50 | COc1cc(-n2cnc(Nc3nc(CC(C)C)nc4c3CCC4c3ccccc3)c2)cc(OC)c1OC (centres unmarked) [Compound 46d, 2-isobutyl-7-phenyl-N-(1-(3,4,5-trimethoxyphenyl)-1H-imidazol-4-yl)-6,7-dihydro-5H-cyclopenta[d]pyrimidin-4-amine] |
| > 50 | COc1cc(-n2cnc(Nc3nc(C(C)CC(O)CO)nc4c3cnn4C(C)C)c2)cc(OC)c1OC (centres unmarked) [Compound 47a, 4-(1-isopropyl-4-((1-(3,4,5-trimethoxyphenyl)-1H-imidazol-4-yl)amino)-1H-pyrazolo[3,4-d]pyrimidin-6-yl)pentane-1,2-diol] |
| > 50 | COc1cc(-n2cnc(Nc3nc(C4CCN(C)CC4)nc4c3cnn4C(C)C)c2)cc(OC)c1OC [Compound 48a, 1-isopropyl-6-(1-methylpiperidin-4-yl)-N-(1-(3,4,5-trimethoxyphenyl)-1H-imidazol-4-yl)-1H-pyrazolo[3,4-d]pyrimidin-4-amine] |
| > 50 | COc1cc(-n2cnc(Nc3nc(C(C)CCO)nc4c3cnn4C(C)C)c2)cc(OC)c1OC (centres unmarked) [Compound 49b, 3-(1-isopropyl-4-((1-(3,4,5-trimethoxyphenyl)-1H-imidazol-4-yl)amino)-1H-pyrazolo[3,4-d]pyrimidin-6-yl)butan-1-ol] |
| > 50 | CNCCC(C)c1nc(Nc2cn(-c3cc(OC)c(OC)c(OC)c3)cn2)c2cnn(C(C)C)c2n1 (centres unmarked) [Compound 50a, 1-isopropyl-6-(4-(methylamino)butan-2-yl)-N-(1-(3,4,5-trimethoxyphenyl)-1H-imidazol-4-yl)-1H-pyrazolo[3,4-d]pyrimidin-4-amine] |
| > 50 | C=C(C)c1nc(Nc2cn(-c3cc(OC)c(OC)c(OC)c3)cn2)c2sccc2n1 [Compound 51c, 2-(prop-1-en-2-yl)-N-(1-(3,4,5-trimethoxyphenyl)-1H-imidazol-4-yl)thieno[3,2-d]pyrimidin-4-amine] |
| > 50 | COc1cc(-n2cnc(Nc3nc(C(C)C)nc4ccsc34)c2)cc(OC)c1OC [Compound 52b, 2-isopropyl-N-(1-(3,4,5-trimethoxyphenyl)-1H-imidazol-4-yl)thieno[3,2-d]pyrimidin-4-amine hydrochloride] |
| > 50 | C=C(C)c1nc(Nc2cn(-c3cc(OC)c(OC)c(OC)c3)cn2)nc2ccsc12 [Compound 53c, 4-(prop-1-en-2-yl)-N-(1-(3,4,5-trimethoxyphenyl)-1H-imidazol-4-yl)thieno[3,2-d]pyrimidin-2-amine] |
| > 50 | COc1cc(-n2cnc(Nc3nc(C(C)C)c4sccc4n3)c2)cc(OC)c1OC [Compound 54a, 4-isopropyl-N-(1-(3,4,5-trimethoxyphenyl)-1H-imidazol-4-yl)thieno[3,2-d]pyrimidin-2-amine] |
| > 50 | C=C(C)c1nc(Nc2cn(-c3cc(OC)c(OC)c(OC)c3)cn2)nc2ccccc12 [Compound 55c, 4-(prop-1-en-2-yl)-N-(1-(3,4,5-trimethoxyphenyl)-1H-imidazol-4-yl)quinazolin-2-amine] |
| > 50 | COc1cc(-n2cnc(Nc3nc(C(C)C)c4ccccc4n3)c2)cc(OC)c1OC [Compound 56a, 4-isopropyl-N-(1-(3,4,5-trimethoxyphenyl)-1H-imidazol-4-yl)quinazolin-2-amine] |
